pEC50: −log10 of the molar value. Where “and” joins values, the source holds several entries; their conditions need not be identical. Equal entries are not always repeated.
Columns and labels:
[1] = test system: inducible nitric oxide synthase (iNOS); test: iNOS suppression / NO assay in LPS-stimulated macrophages or RAW264.7 cells (Griess reaction); type: cell-based, mouse; conditions: for activity at 0.1 µM / activity at 0.3 µM / activity at 0.125 µM / activity at 0.5 µM: Mus musculus; for activity at 0.1 µM / activity at 0.3 µM: RAW264.7, 24 h, percent of the LPS-stimulated control, lower is better, Table 6; for activity at 0.3 µM: at 300 nM, read-out: iNOS suppression; for activity at 0.125 µM / activity at 0.5 µM: RAW264.7, Control 100, lower numbers indicate higher efficacy, read-out: NO Assay; for activity at 0.125 µM: 125 nM; for activity at 0.5 µM: 500 nM
Description: Macrophages or RAW264.7 like-cells were treated with various concentrations of rexinoids and stimulated with lipopolysaccaride (LPS) to activate inducible nitric oxide synthase (iNOS) to produce nitric oxide. This in vitro iNOS assay was rapid, reproducible, quantitative and predictive. Nitric oxide is implicated in the apoptosis of cancer cells via regulation of RXRs. There is a tight correlation between the % reduction of iNOS and efficacy in preclinical lung cancer models. Lower numbers indicate higher efficacy.
RAW264.7 cells were incubated with 300 nM rexinoids and stimulated with 1-2 ng/ml lipopolysaccaride (LPS) for 24 hours to activate inducible nitric oxide synthase (iNOS) to produce nitric oxide. Nitric oxide released into the media was measured by the Griess reaction.
Also, for Table 6, the iNOS suppression is the percent of the LPS-stimulated control where the compounds were measured at 100 nM or 300 nM.
Macrophages or RAW264.7 cells were treated with various concentrations of rexinoids listed in Table 7 and stimulated with lipopolysaccaride (LPS) to activate inducible nitric oxide synthase (iNOS) to produce nitric oxide. Nitric oxide (NO) is implicated in the apoptosis of cancer cells via regulation of RXRs. There is a tight correlation between the % reduction of iNOS and efficacy in preclinical lung cancer models. The in vitro iNOS assay is rapid, reproducible, quantitative and predictive, as NO production is measured in culture medium using the Griess reaction. Values are either presented as % inhibition or IC50 values.

[2] = Triglycerides in rodent models; type: in vivo
[3] = target: T1, human RXRa (Homo sapiens, UniProt P19793); test: RXR activation luciferase reporter assay; type: cell-based; conditions: for pEC50: Table 6, read-out: RXRα activation (EC50); for RXR assay: luciferase, Control 0, higher numbers indicate higher potency
T1 sequence (P19793 1-462): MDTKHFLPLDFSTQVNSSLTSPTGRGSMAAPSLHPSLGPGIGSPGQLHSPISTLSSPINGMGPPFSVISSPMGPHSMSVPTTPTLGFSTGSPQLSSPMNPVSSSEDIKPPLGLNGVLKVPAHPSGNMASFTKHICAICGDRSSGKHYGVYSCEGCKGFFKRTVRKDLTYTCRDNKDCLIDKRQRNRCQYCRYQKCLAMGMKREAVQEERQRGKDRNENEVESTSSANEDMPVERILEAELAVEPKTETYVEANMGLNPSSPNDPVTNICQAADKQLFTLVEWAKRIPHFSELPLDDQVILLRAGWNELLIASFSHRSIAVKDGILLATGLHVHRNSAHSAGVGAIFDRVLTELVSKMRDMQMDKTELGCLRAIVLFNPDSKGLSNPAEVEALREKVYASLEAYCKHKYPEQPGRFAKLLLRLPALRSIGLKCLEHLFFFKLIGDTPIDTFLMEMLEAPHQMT
Source text: Rexinoids are agonists for the retinoid X receptors (RXRs). In this assay, the human RXRa promoter is functionally linked to a luciferase reporter gene. Changes in luciferase expression served as a sensitive surrogate measure of RXR activity. Higher numbers indicate higher potency.

[4] = test system: SREBP; test: SREBP induction in human liver (HepG2) cells, RT-PCR; type: cell-based; set-up: key to SREBP: fold induction vs DMSO control; conditions: for SREBP activation: fold induction compared to DMSO, several values per cell, Table 6; for SREBP: 300 nM, Control 1.00, lower numbers indicate better safety, Table 2
Description: The SREBP transcription factor is involved in triglyceride synthesis, and its activation correlates with increased triglycerides in vivo. […] Lower numbers indicate better safety. […] Lower numbers indicate better safety. Also, for Table 6, SREBP activation was measured as fold induction compared to DMSO, where a lower value indicates the compound is an improvement over a control.

[5] = test system: Lung Cancer Model; test: Lung cancer model rank order; type: in vivo
[6] = LogD at pH 7.4; type: physicochemical; conditions: pH 7.4 buffer
Description: Note that for Table 6, Log D is the distribution constant, which is descriptor of the lipophilicity of a molecule. This was determined using an aqueous phase that was adjusted to pH 7.4 using a buffer.

[7] = test system: RAR receptor; conditions: cited from earlier work
[8] = test system: mammary gland tumors of MMTV-Neu mice; test: MMTV-Neu mouse model of HER2 positive breast cancer, rexinoid in diet; conditions: 100 mg/kg diet, LG268 5 days
Description: Tumors or mammary glands were homogenized in EBC buffer (1M Tris pH 8, 5M NaCl) with the same protease inhibitors and 10% NP-40 and incubated on ice for 30 min. Protein concentrations were determined by the BCA assay (Sigma-Aldrich). Proteins were resolved by SDS-PAGE, transferred to a nitrocellulose membrane and analyzed with the following antibodies: vinculin, p-STAT1, p-STAT3, p-STAT5 and mouse and rabbit secondary antibodies (Cell Signaling); PD-1, CD206 (Abcam); PD-L1 (R&D). ImageJ was used to quantify the immunoblots, and results were plotted and statistically analyzed using Prism 6. All images shown are representative of 3 independent experiments.
One third of the tumor, mammary gland and spleen removed from MMTV-neu or MMTV-PyMT mice were minced separately and incubated in digestion media consisting of collagenase (300 U/ml, Sigma), dispase (1 U/ml, Worthington), and DNAse (2 U/ml, Calbiochem) for 30 minutes at 37° C. with stirring. Cells were then passed through a 40 μm cell strainer (BD Falcon), and red blood cells eliminated with lysis solution. […] Propidium iodide staining was used to exclude dead cells.
One third of the tumor, spleen and one mammary was removed from MMTV-neu and PyMT mice and fixed in 10% phosphate-buffered formalin for 48 hours, embedded in paraffin blocks, and sectioned (5-6 μm). Hydrogen peroxide was used to quench endogenous peroxidase activity. Sections were immunostained with antibodies raised against CD206 (1:200, Abcam), Gr1 (1:40, BM8, R&D), CD8 (1:40, Biolegend), FOXP3 (1:50, EBiosciences), PD-1 (1:100, Abcam), PD-L1 (1:50, Abcam), cleaved caspase 3 (Cell Signaling) and visualized with biotinylated anti-rabbit or anti-rat secondary antibodies (Cell Signaling or Vector Labs). Signal was detected using a DAB substrate (Cell Signaling) following the manufacturer's recommendations. Sections were counterstained with hematoxylin (Vector Labs).
Both rexinoid treatments were 100 mg/kg of diet, which is equivalent to 25 mg/kg of body weight (FIG. 1B).

[9] = test system: PD-L1; test: PD-L1 induction in macrophages or RAW264.7 cells with cancer cell conditioned media (flow cytometry); type: cell-based, mouse; conditions: for PD-L1: Table 2, Control 39.8, higher numbers indicate better upregulation; for PD-L1 Levels: Table 4, Control 43.3
Description: RAW 264.7 mouse macrophage-like (ATCC) and E18-14C-27 (Wu et al., Cancer Res. 62, 6376-6380 (2002)) cells were cultured in DMEM supplemented with 10% fetal bovine serum (FBS). RAW 264.7 cells were cultured at 50000/well in a 6 well plate for 24 hours to determine PD-L1 levels. E18-14C-27 cells were cultured for 72 hours in the presence of LG268 for protein levels. Conditioned media was collected from E18-14C-27 at 60-70% confluence for 24 hours; media was then collected and centrifuged at 900 rpm for 5 minutes to eliminate any cell debris.
For PD-L1 staining, RAW 264.7 cells were plated at 25000 cells/ml in 6 well plates for 24 hours before adding conditioned media from E18-14C-27 and LG268. RAW 264.7 cells were cultured for additional 24 hours with E18-14C-27 conditioned media and LG268. […] THP-1 cells were stained and analyzed for the levels of PD-L1 following the same protocol.
Inhibitory receptors on lymphocytes such as PD-1 (programmed cell death protein 1) are important immune checkpoints that protect against autoimmunity as the interaction between PD-L1 (ligand) and the PD-1 receptor expressed on immune cells suppresses T cell activity. Immuno-oncology is revolutionizing cancer treatment, and enormous research efforts are ongoing to identify drugs that upregulate PD-L1 so that they can be combined with checkpoint inhibitors to boost efficacy. Macrophages or RAW264.7 cells are treated with conditioned media from cancer cells and rexinoids, and PD-L1 expression determined by flow cytometry. Higher numbers indicate better upregulation of PD-LI.
Using methods described herein, macrophages or RAW264.7 cells were treated with selected rexinoids and with conditioned media from cancer cells. Structures of the rexinoids are shown below.
PD-L1 expression was determined by flow cytometry.

[10] = Toxicity in A/J mice with lung tumors fed rexinoids plus carboplatin and paclitaxel; type: in vivo; conditions: 100 mg/kg diet, 7 weeks
Description: A/J mice with lung tumors (detected by ultrasound) were fed rexinoids in their diets (at 100 mg/kg diet) and injected twice every other week with carboplatin and paclitaxel.

[11] = bexarotene 10 days, western blot

Triglyccerides (Rodent Models) [2]	Compound	activity at 0.1 µM ([1]; at 100 nM) [%]	SREBP activation [4]	activity at 0.3 µM [1] [%]	logD [6]	also measured
Modest Elevation	Cc1cc2c(cc1C1(c3ncc(C(=O)O)cn3)CC1)C(C)(C)CCC2(C)C [drawing 98, reference compound]	~25	~1.25 fold induction			pEC50 [3]: 7.30 to 7.60; Lung Cancer Model Rank Order [5]: 3
Elevated	CC(/C=C/[C@@H]1C[C@]1(C)c1cc2c(cc1C)C(C)(C)CCC2(C)C)=C\C(=O)O [reference compound]	15 to 20	~3.6 fold induction			pEC50 [3]: 7.60 to 9.00; Lung Cancer Model Rank Order [5]: 2
No Elevation	C/C(=C/C=C/C(C)=C/C(=O)O)c1cc(C(C)(C)C)cc(C(C)(C)C)c1OCC(F)F [drawing 96]	30 to 35				Lung Cancer Model Rank Order [5]: 4
	CCN(c1ccc(C(=O)O)cc1)c1cc(C(C)(C)C)c(OC)c(C(C)(C)C)c1 [drawing 121]		1.45 fold induction	74	3.8	
	C=C(c1ccc(C(=O)O)cc1)c1cc(C(C)C)c(OCC)cc1C [drawing 115]		1.4 fold induction	45	2.6	
Elevated (mice)	CCN(c1ccc2c(c1)C(C)(C)CCC2(C)C)c1ccc(C(=O)O)cn1 [reference compound]					pEC50 [3]: 7.60 to 9.00
	CC(C)CN(c1cc(C(C)(C)C)cc(C(C)(C)C)c1)c1ccc(C(=O)O)cn1 [Compound 18, 6-[(3,5-di-tert-butylphenyl)(2-methylpropyl)amino]pyridine-3-carboxylic Acid]					activity at 0.125 µM [1]: 52%; activity at 0.5 µM [1]: 11.5%; toxicity findings (liver, triglycerides, cholesterol, fur) [10]: normal coats; toxicity findings (liver, triglycerides, cholesterol, fur) ([10]; listed as MSU-42011): less toxicity than LG100268; RXR assay ([3]; 100 nM): 12881; RXR assay ([3]; 2500 nM): 35605; SREBP [4]: 1.52; PD-L1 ([9]; 100 nM): 58.5
	CCN(c1cc(C(C)(C)C)cc(C(C)(C)C)c1)c1ccc(C(=O)O)cn1 [drawing 105]		1.6 fold induction and 2.85 fold induction and 3.1 fold induction	30	2.9	
	C=C(c1ccc(C(=O)O)cc1)c1ccc(OCC(C)C)c(C(C)C)c1 [drawing 110]		2 fold induction	75	3	
No elevation (mice)	Cc1cc2c(cc1-n1c(C(F)(F)F)nc3cc(C(=O)O)ccc31)C(C)(C)CCC2(C)C [reference compound]					pEC50 [3]: 7.60 to 9.00
	CCN(c1cc(C(F)(F)F)cc(C(F)(F)F)c1)c1ccc(C(=O)O)cn1 [drawing 119]	24	0.95 fold induction and 1.2 fold induction	15	1.5	
Modest elevation in female rats	CCN(c1ccc(OCC(C)C)c(C(C)C)c1)c1ccc(C(=O)O)cn1 [reference compound]					pEC50 [3]: 6.70 to 7.30
	CCN(c1ccc(C(=O)O)cc1)c1cc(C(C)(C)C)cc(C(C)(C)C)c1 [drawing 104]		1.8 fold induction and 2.5 fold induction	43	4	
	C=C(c1ccc(C(=O)O)cc1)c1cc(C(C)C)c(OC(C)C)cc1C [drawing 114]		4.7 fold induction	40	3.1	
	CCN(c1ccc(C(=O)O)cc1)c1cc(C(C)C)c(OCC(C)C)cc1C [drawing 120]		1.3 fold induction	86	3.8	

Compound	Triglyccerides (Rodent Models) [2]	activity at 0.1 µM ([1]; at 100 nM) [%]	SREBP activation [4]	activity at 0.3 µM [1] [%]	logD [6]	also measured
C=C(c1ccc(C(=O)O)cc1)c1cc2c(cc1C)C(C)(C)CCC2(C)C [Bexarotene, bexarotene]	Elevated	30 to 35	2.7 fold induction and 2.9 fold induction and 1.95 fold induction			activity at 0.125 µM [1]: 78%; activity at 0.5 µM [1]: 32.4%; iNOS ([1]; at 100 nM, comparators of Table 3): 22-40% at 100 nM; binding to the RAR receptor [7]: limited RAR binding; PD-L1 expression in tumors vs control ([8]; CW-V-125 10 days, western blot and/or immunohistochemistry): did not significantly induce; myeloid derived suppressor cells (CD45+, CD11b+, Gr1+) in tumors ([8]; bexarotene 10 days, control 1.9%): did not alter; mammary tumor size (tumor weight as percentage of total body weight) ([8]; bexarotene 10 days, control diet 3.2%): did not reduce; cleaved caspase 3 in tumors ([8]; bexarotene 10 days, immunohistochemistry): did not increase; reduction of CD206 expression in tumor lysates [8, 11]: did not induce a change; reduction of p-STAT1 expression in whole tumor lysates [8, 11]: no changes; SREBP [4]: 2.13; Lung Cancer Model Rank Order [5]: 5; PD-L1 ([9]; 100 nM): 58.5; PD-L1 Levels ([9]; 100 nM): 51.2; PD-L1 Levels ([9]; 1000 nM): 64; PD-L1 levels in RAW 264.7 cells with E18-14C-27C conditioned media ([9]; 24 hours): no changes
Cc1cc2c(cc1C1(c3ccc(C(=O)O)cn3)CC1)C(C)(C)CCC2(C)C [drawing 95, reference compound]	Elevated	15 to 20	3.9 fold induction and 3.1 fold induction and 3.2 fold induction			Lung Cancer Model Rank Order [5]: 1
